Test results reported in ChEMBL document CHEMBL1140021, “Ferulic acid and benzothiazole dimer derivatives with high binding affinity to beta-amyloid fibrils” (Bioorg Med Chem Lett, 2007).

test: Displacement of [125I]TZDM from human beta amyloid fibril 1-42

Ki	SMILES
0.53 nM	CN(CCN(C)c1nc2ccccc2s1)c1nc2ccccc2s1
0.61 nM	Cc1ccc2nc(N(C)CCN(C)c3nc4ccc(C)cc4s3)sc2c1
0.71 nM	c1ccc2sc(NCCNc3nc4ccccc4s3)nc2c1
0.77 nM	[11CH3]Nc1ccc(-c2nc3ccc(O)cc3s2)cc1 [PITTSBURGH COMPOUND B]
0.55 nM	CN(CCN(C)c1nc2ccc(Br)cc2s1)c1nc2ccc(Br)cc2s1
0.96 nM	Clc1ccc2nc(NCCNc3nc4ccc(Cl)cc4s3)sc2c1
0.72 nM	COc1cc(/C=C/C(=O)O)ccc1N(C)CCN(C)c1ccc(/C=C/C(=O)O)cc1OC
0.75 nM	Fc1ccc2nc(NCCNc3nc4ccc(F)cc4s3)sc2c1
1.36 nM	COc1cc(/C=C/C(=O)O)ccc1N1CCN(c2ccc(/C=C/C(=O)O)cc2OC)CC1
0.69 nM	CN(CCN(C)c1nc2ccc(N)cc2s1)c1nc2ccc(N)cc2s1
0.77 nM	COc1cc(/C=C/C(=O)O)ccc1O [FERULATE]
> 10 nM	CS(=O)(=O)c1ccc2nc(NCCNc3nc4ccc(S(C)(=O)=O)cc4s3)sc2c1
1.37 nM	CN(CCN(C)c1nc2ccc(F)cc2s1)c1nc2ccc(F)cc2s1
1.11 nM	Brc1ccc2nc(NCCNc3nc4ccc(Br)cc4s3)sc2c1
0.69 nM	Nc1ccc2nc(NCCNc3nc4ccc(N)cc4s3)sc2c1
0.81 nM	Cc1ccc2nc(NCCNc3nc4ccc(C)cc4s3)sc2c1
1 nM	COc1cc(/C=C/C(=O)O)ccc1OCCOc1ccc(N(C)C)cc1OC
0.57 nM	COc1cc(/C=C/C(=O)O)ccc1OCCOc1ccc(N(CC(=O)O)CC(=O)O)cc1OC
0.55 nM	CN(CCN(C)c1nc2ccc(S(C)(=O)=O)cc2s1)c1nc2ccc(S(C)(=O)=O)cc2s1
0.6 nM	COc1cc(/C=C/C(=O)O)ccc1OCCOc1ccc(/C=C/C(=O)O)cc1OC
0.64 nM	CN(CCN(C)c1nc2ccc(Cl)cc2s1)c1nc2ccc(Cl)cc2s1
